For one data set, the system named is BTK-C-flag protein. Kind of data set: BTK-C-flag protein knockdown by immunoblot in HEK 293T cells with BTK-C specific siRNAs. The format is cell-based, human. The settings on record: transfected HEK 293T cells. As for the experimental part:
(§1) FIG. 12A-12D. The BTK-C gene produces an 80 kD product. (12a) A schematic representation showing the domains of the BTK-A and predicted BTK-C protein. (12b) Total lysate from breast lines and Namalwa B-cells subjected to immunoblotting and probed with an anti-BTK antibody (BD Transduction Laboratory, 611116). (12c) HEK293 cells co-transfected with a BTK-C flag vector and either BTK-C siRNAs or Non-Target siRNA. Total lysate was prepared 96 hrs post transfection and was used for immunoblotting with anti-Flag antibody. (12d) BT474 cells were transfected with two BTK-C specific siRNAs, non-target siRNA as a control and co-transfected with GFP to mark transfected cells. Transfected cells were counted at 24 h and 96 h and the 96 hr to 24 hr ratio was calculated and expressed as % of the control.

In data set [1] the test system is BT474 cells. The data set is described as follows: BT474 viability after BTK-C specific siRNAs (GFP-marked cell counts, 96 h to 24 h ratio). In kind it is cell-based, human. As for the experimental part: as §1
For another data set, the system named is SKBR3 xenograft. The data set is described as follows: SKBR3 xenograft tumor growth in NOD/SCID mice (mammary fat pad injection). In kind it is in vivo. The note with it: 12 mg/kg, day 28, p<0.01.
In another data set the test system is MDA-MB-231 cells. The data set is described as follows: MDA-MB-231 tail vein metastasis model in NOD/SCID mice. The note with it: 12 mg/kg per day, oral. In kind it is in vivo. As for the experimental part:
FIG. 24A-24D. […] (24A) 10^6 MDA-MB-231 cells in 100 μl PBS were injected into the tail vein of 4-5 week old female NOD/SCID mice (Jackson Labs). Injected animals were randomly assigned to control or experimental groups. Starting at time of tail vein injection, mice were treated with vehicle or ibrutinib (12 mg/kg per day, oral). At end point, mice were euthanized and bones and organs collected for histological analysis. Note that all bone metastases in control groups led to the development of paralysis (5/16, n=16 per group). […] Thin section of a tumor arising in an untreated control animal.
More specifically, 10^6 MDA-MB-231 (Her2-) cells in 100 μl PBS were injected into the tail vein of 4-5 week old female NOD/SCID mice (Jackson Labs). Injected animals were randomly assigned to control or experimental groups. Starting at time of tail vein injection, mice were treated with vehicle or ibrutinib (12 mg/kg per day, oral). At end point, mice were euthanized then bones and organs collected for histological analysis. Note that bone metastases in control groups led to the development of paralysis (5/16, n=16 per group).

Data set [2] deals with HER2+ breast cancer cells. Kind of data set: Growth factor-driven lapatinib resistance in HER2+ breast cancer cells (NRG, EGF). In kind it is cell-based, human.
Data set [3] relates to SK-Br-3 Her2/neu positive breast cancer cells. Kind of data set: SKBR3 cell number after 72 hours with or without EGF. The format is cell-based, human. The settings on record: 50 ng/ml EGF.
Data set [4] concerns HER2, AKT and ERK phosphorylation. The data set is described as follows: Immunoblots of HER2, AKT and ERK phosphorylation in SKbr3 cells with or without EGF. The note with it: 1 μM, EGF 50 ng/ml, 3 hours. The format is cell-based, human. For orientation: Immunoblotting shows a protein as a band on a membrane.
A further data set relates to BTK-A and BTK-C proteins. The data set is described as follows: BTK Tyr223 auto-phosphorylation, anti-Flag IP and Western blot in BT474 cells over-expressing BTK-A-flag or BTK-C-flag. In kind it is cell-based, human.
Data set [5] has as its system BT474 cells. Kind of data set: Cleaved caspase-3 apoptosis assay in BT474 cells. The format is cell-based, human. As for the experimental part:
For high-throughput experiments, cells grown on 96-well plates were washed once with 1×PBS, fixed with 2.5% formaldehyde and stained with Hoechst 33342 (Molecular Probes-Invitrogen). Cell images were acquired using an In Cell Analyzer 1000 (GE Healthcare) high content imaging system, with a 20× objective. At least 50 fields were imaged per single experiment. Cell counts and statistics were then performed using the In Cell Investigator 3.4 high-content image analysis software (GE Healthcare). Apoptosis was detected by cleaved Caspase-3 after 48 h to 96 h of shRNA treatments. […] Control cells were treated with DMSO. For the cleaved caspase-3 assay, cells were fixed after treatment with 2.5% formaldehyde, washed with 1×PBS, permeabilized with 0.1% Triton-X 100 (Fisher Chemicals), blocked with 3% normal goat serum (Sigma-Aldrich), incubated with a 1:50-1:200 dilution of the primary antibody, washed with 1×PBS, incubated with a 1:800 dilution of the secondary antibody, washed again with 1×PBS and finally stained with Hoechst 33342 (Molecular Probes-Invitrogen). Cells were imaged by the In Cell Analyzer 1000 (GE Healthcare) or by a Leica TCS SP5 confocal microscope system (Leica Microsystems). At least 500 cells were counted for cleaved Caspase-3. […]

Data set [6] deals with MCF-7 and MDA-MB-361 cell lines. Kind of data set: 2-NBDG glucose uptake in breast cancer cell lines. The format is cell-based, human. The note with it: breast cancer cell lines that express BTK-C; LFM-A13 for 24 hours. As for the experimental part:
(§2) FIG. 15A-15D. BTK-C promotes glucose uptake. […] Immunofluorescence pictures were taken in INCELL-1000; (15d) Fluorescence intensity was quantified in right. […] (15a) The effect of BTK-C on glucose uptake in breast cancer cell lines. MCF-7 and MDA-MB-361 cell lines were treated as in (15c). (15b) Fluorescence intensity shown at right panel, *p<0.01.

A further data set deals with 10A-BTK-C cells. The data set is described as follows: 2-NBDG glucose uptake in MCF-10A cells over-expressing BTK-C. The settings on record: LFM-A13 for 24 hours. The format is cell-based, human. As for the experimental part: as §2
Data set [7] deals with MCF-10A cells over-expressing BTK-C. The settings on record: 35 μM LFM-A13 for 24.

Entries after “also recorded” stand apart in the source; their conditions may differ.

Turning to “siRNA2: BTK-C specific siRNA, sense SEQ ID NO: 68, antisense SEQ ID NO: 69 (sense CAACAAAUGGUUAUUGGAUUU; antisense AUCCAAUAACCAUUUGUUGUU; chemistry not given here; listed as Homo sapiens)”, the BTK-C-flag protein expression result with BTK-C-flag protein was “reduce BTK-C-flag protein expression”. The “viability of BT474 cells” value in the data set with BT474 cells [1] was “decrease the viability”.

On to `C=CC(=O)N1CCC[C@@H](n2nc(-c3ccc(Oc4ccccc4)cc3)c3c(N)ncnc32)C1` [Ibrutinib], for which, in the data set on SKBR3 xenograft, the “tumor volumes smaller than vehicle control” value is 45%. Also, the “decrease of non-lung metastases” value in the data set with MDA-MB-231 cells turned out to be 3 fold.

For the molecule `C=CC(=O)Nc1cccc(Nc2nc(Nc3ccc(OCCOC)cc3)ncc2F)c1` [AVL-292], in data set [2], the EGFR family activation result is “has no effect on EGFR family activation”; the “NRG- and EGF-dependent growth factor-driven resistance to lapatinib” value was “prevents NRG- and EGF-dependent growth factor-driven resistance to lapatinib”.

On to `CS(=O)(=O)CCNCc1ccc(-c2ccc3ncnc(Nc4ccc(OCc5cccc(F)c5)c(Cl)c4)c3c2)o1` [Lapatinib], for which the “effect of EGF treatment on drug activity (cell number)” value in data set [3] is on record as “EGF treatment counteracts lapatinib to a much larger degree than PCI-32765”. In addition, the “ERK activation in the presence of EGF” value in [4] is “EGF counteracts lapatinib's effect, causing ERK re-activation”.

As for `C/C(O)=C(\C#N)C(=O)Nc1cc(Br)ccc1Br` [LFM-A13], the “phosphorylation of both the BTK-A and BTK-C proteins” value in the data set with BTK-A and BTK-C proteins (35 μM LFM-A13 for 48 h) is reported as “significantly impedes phosphorylation”. Also, in the data set on BTK-A and BTK-C proteins (100 μM LFM-A13 for 45 mins), the “phosphorylation of BTK-A and BTK-C proteins (pY223)” value is reported as “severely impeded phosphorylation; also recorded: reduces phosphorylation of BTK”. Besides, the “increase of apoptosis levels compared to control” value was 8% with BT474 cells [5] (25 uM LFM-A13, BT474 cells) and “six fold” in the data set with BT474 cells [5] (35 μM LFM-A13, BT474 cells, 48 h). Also, the “glucose uptake (2-NBDG fluorescence)” value in [6] is reported as “inhibits glucose uptake”; with 10A-BTK-C cells, “inhibited”. Further, the “acquired resistance to Doxorubicin (1 μM)” value in data set [7] was “abolishes the acquired resistance to Doxorubicin”.

For the origin of these results see patent US10421820B2, “Bruton's tyrosine kinase as anti-cancer drug target” (The Research Foundation for The State University of New York, priority 2008, dated 2019).
